Measurements taken from patent US10947253B2, “Fused polycyclic dimers” (Ankh Life Sciences Limited, priority 2019, dated 2021).

Columns and labels:
[1] = tested on: A2780CP; test: MTT growth inhibition (in vitro cytotoxicity), A2780CP; format: cell-based; details: Homo sapiens, A2780C/P, average IC50
Procedure: (§1) The following Table sets forth the IC50 values of harmaline and quinoline analogs against 23 human cancer cell lines. Growth inhibition effects (in vitro cytotoxicity) on pancreatic, endometrial, breast, lung, ovarian, renal, cervical, lymphoma, and myeloma cancer cells were determined by MTT assays and represented by average IC50 values. In the Table, the results are given in terms of μM, and nd=not determined.

[2] = tested on: HEC-1a; test: MTT growth inhibition (in vitro cytotoxicity), HEC-1a; format: cell-based; details: Homo sapiens, average IC50
Procedure: as §1

[3] = Metabolic half-life; format: in vitro ADME; details: read-out: metabolic half-lives
[4] = tested on: SiHA; test: MTT growth inhibition (in vitro cytotoxicity), SiHA; format: cell-based; details: Homo sapiens, average IC50
Procedure: as §1

[5] = tested on: A2780; test: MTT growth inhibition (in vitro cytotoxicity), A2780; format: cell-based; details: Homo sapiens, average IC50
Procedure: as §1

[6] = tested on: MIA Paca-2; test: MTT growth inhibition (in vitro cytotoxicity), MIA Paca-2; format: cell-based; details: Homo sapiens, average IC50
Procedure: as §1

[7] = tested on: JIM1; test: MTT growth inhibition (in vitro cytotoxicity), JIM1; format: cell-based; details: Homo sapiens, average IC50
Procedure: as §1

[8] = tested on: OCI-LY3; test: MTT growth inhibition (in vitro cytotoxicity), OCI-LY3; format: cell-based; details: Homo sapiens, average IC50
Procedure: as §1

[9] = tested on: KMS-34; test: MTT growth inhibition (in vitro cytotoxicity), KMS-34; format: cell-based; details: Homo sapiens, average IC50
Procedure: as §1

[10] = tested on: H1650(EGFR mut); test: MTT growth inhibition (in vitro cytotoxicity), H1650(EGFR mut); format: cell-based; details: Homo sapiens, NCI-H1650, average IC50
Procedure: as §1

[11] = tested on: MDA-MB-231; test: MTT growth inhibition (in vitro cytotoxicity), MDA-MB-231; format: cell-based; details: Homo sapiens, average IC50
Procedure: as §1

[12] = tested on: L363; test: MTT growth inhibition (in vitro cytotoxicity), L363; format: cell-based; details: Homo sapiens, L-363, average IC50
Procedure: as §1

[13] = tested on: A498; test: MTT growth inhibition (in vitro cytotoxicity), A498; format: cell-based; details: Homo sapiens, average IC50
Procedure: as §1

[14] = tested on: AN3CA; test: MTT growth inhibition (in vitro cytotoxicity), AN3CA; format: cell-based; details: Homo sapiens, AN3-CA, average IC50
Procedure: as §1

[15] = tested on: BxPC-3; test: MTT growth inhibition (in vitro cytotoxicity), BxPC-3; format: cell-based; details: Homo sapiens, average IC50
Procedure: as §1

[16] = tested on: ASPC-1; test: MTT growth inhibition (in vitro cytotoxicity), ASPC-1; format: cell-based; details: Homo sapiens, ASPC1, average IC50
Procedure: as §1

[17] = tested on: human cancer cell lines; test: Cancer cell growth inhibition, summary over cell lines; format: cell-based; details: cell lines not specified, read-out: cancer cell growth inhibition (IC50)
Procedure: as §1

[18] = tested on: MDA-MB-468; test: MTT growth inhibition (in vitro cytotoxicity), MDA-MB-468; format: cell-based; details: Homo sapiens, average IC50
Procedure: as §1

[19] = tested on: RPMI-8226; test: MTT growth inhibition (in vitro cytotoxicity), RPMI-8226; format: cell-based; details: Homo sapiens, average IC50
Procedure: as §1

[20] = tested on: KMM-1; test: MTT growth inhibition (in vitro cytotoxicity), KMM-1; format: cell-based; details: Homo sapiens, average IC50
Procedure: as §1

[21] = tested on: MOLP-8; test: MTT growth inhibition (in vitro cytotoxicity), MOLP-8; format: cell-based; details: Homo sapiens, average IC50
Procedure: as §1

[22] = tested on: HCC70; test: MTT growth inhibition (in vitro cytotoxicity), HCC70; format: cell-based; details: Homo sapiens, average IC50
Procedure: as §1

[23] = tested on: DoHH-2; test: MTT growth inhibition (in vitro cytotoxicity), DoHH-2; format: cell-based; details: Homo sapiens, average IC50
Procedure: as §1

[24] = tested on: FaDu; test: MTT growth inhibition (in vitro cytotoxicity), FaDu; format: cell-based; details: Homo sapiens, average IC50
Procedure: as §1

[25] = tested on: H1975 (EGFR mut); test: MTT growth inhibition (in vitro cytotoxicity), H1975 (EGFR mut); format: cell-based; details: Homo sapiens, NCI-H1975, average IC50
Procedure: as §1

SMILES | IC50 [1] [µM] | IC50 [2] [µM] | half-life [3] [h] | IC50 [4] [µM] | IC50 [5] [µM] | IC50 [6] [µM] | IC50 [7] [µM] | IC50 [8] [µM] | IC50 [9] [µM] | IC50 [10] [µM] | IC50 [11] [µM] | IC50 [12] [µM] | IC50 [13] [µM] | IC50 [14] [µM] | IC50 [15] [µM] | IC50 [16] [µM] | IC50 [17] [µM] | IC50 [18] [µM] | IC50 [19] [µM] | IC50 [20] [µM] | other results
COc1ccc2c3c([nH]c2c1)C(CC(CC1=NCCc2c1[nH]c1cc(OC)ccc21)c1ccc(O)c(OC)c1)=NCC3 [Compound 5, 4-(1,3-bis(7-methoxy-4,9-dihydro-3H-pyrido[3,4-b]indol-1-yl)propan-2-yl)-2-methoxy-phenol] | 3.76 | 5.05 | 1.28 ± 0.0393 | 4.88 | 5 | 2.87 | 3.17 | 4.54 | 4.72 | 2.78 | 2.52 | 2.69 | 3.56 | 2.5 | 2.11 | 6.75 | 4 to 7 | 2.76 | 3.19 | 3.48 | IC50 [21]: 3.37 µM; IC50 [22]: 2.38 µM; IC50 [23]: 1.83 µM; IC50 [24]: 3.87 µM; IC50 [25]: 6.12 µM
COc1ccc2[nH]c3c(c2c1)CCN=C3CCCC1=NCCc2c1[nH]c1ccc(OC)cc21 [Compound 7, 1,3-bis(6-methoxy-4,9-dihydro-3H-pyrido[3,4-b]indol-1-yl)propane] | 4.12 | 7.02 | 2.6 ± 0.124 | 12.7 | 2.54 | 4.54 | 6.15 | 8.85 | 4.41 | 4.95 | 3.12 | 2.47 | 5.39 | 3.01 | 3.21 | 7.9 | 0.6 to 2 | 2.6 | 1.97 | 5.18 | IC50 [21]: 1.88 µM; IC50 [22]: 5.13 µM; IC50 [23]: 2.41 µM; IC50 [24]: 2.34 µM; IC50 [25]: 5.77 µM
COc1ccc2[nH]c3c(c2c1)CCN=C3CC(C)(C)CC1=NCCc2c1[nH]c1ccc(OC)cc21 [Compound 8, 1,1′-(2,2-dimethylpropane-1,3-diyl)bis(6-methoxy-4,9-dihydro-3H-pyrido[3,4-b]indole)] | 2.23 | 2.22 | 6.88 ± 1.94 | 2.89 | 1.38 | 1.22 | 2.59 | 2.59 | 1.7 | 1.78 | 1.5 | 1.21 | 1.71 | 1.96 | 0.95 | 2.07 | 0.6 to 2 | 1.9 | 0.81 | 1.49 | IC50 [21]: 0.67 µM; IC50 [22]: 1.3 µM; IC50 [23]: 2.21 µM; IC50 [24]: 0.98 µM; IC50 [25]: 2.08 µM
